The results in this text go back to patent publication EP3797781A1, “USE OF EC-7072 AND SYNERGIC COMPOSITIONS THEREOF IN TREATMENT OF CHRONIC LYMPHOCYTIC LEUKEMIA” (priority 2019, dated 2021).

The test system of this assay is active caspase-3. Put plainly: Caspase-3 activity assay in leukemia cells (flow cytometry). Type of assay: cell-based, human. To be noted: 0 - 400 nM, 24 hours; leukemia cells in PBMCs from patients with CLL (n = 6). The method, then:
Intracellular levels of activated caspase-3 were measured by using CaspGLOW™ Fluorescein Active Caspase-3 Staining Kit (Invitrogen). In brief, EC-7072 (200 nM) or DMSO-treated PBMCs from patients with CLL were incubated with FITC-DEVD-fmk for 30 minutes at 37 °c and fluorescence was next analyzed by flow cytometry in leukemia cells. For some experiments, cells were pretreated for 2 hours with the indicated doses of the broad-spectrum caspase inhibitor Z-VAD-fmk.
The induction of caspase-dependent apoptosis on primary CLL cells by EC-7072 was assessed by: • (i) incubating PBMCs isolated from patients with CLL (n = 6) following treatment with increasing concentrations of EC-7072 (0 - 400 nM) for 24 hours. Apoptosis of leukemia cells was evaluated by cytofluorometric assessment of Annexin V/PI staining to obtain percentages of apoptotic [Annexin V^+ PI^-] and dead [PI^+] cells (Figure 3A); • (ii) incubating PBMCs and T cells isolated from patients with CLL (n = 3) following treatment with EC-7072 (200 nM) for 24 hours. T cell apoptosis was evaluated by cytofluorometric assessment of Annexin V/PI staining to obtain percentages of viable [Annexin V-], apoptotic [Annexin V^+ PI^-] and dead [PI^+] cells (Figure 3B); • (iii) incubating PBMCs isolated from patients with CLL (n = 6) following treatment with EC-7072 (0 - 400 nM) for 24 hours. […]
Background: A flow cytometer gives signals particle by particle.

On to `CO[C@@H]([C@@H]1Cc2cc3cc(O[C@H]4C[C@@H](O[C@H]5C[C@@H](O)[C@H](O)[C@@H](C)O5)[C@H](O)[C@@H](C)O4)c(C)c(O)c3c(O)c2C(=O)[C@H]1O[C@H]1C[C@@H](O[C@H]2C[C@@H](O[C@H]3C[C@](C)(O)[C@H](O)[C@@H](C)O3)[C@@H](O)[C@@H](C)O2)[C@H](O)[C@@H](C)O1)[C@@H](O)C(C)=O` [EC-7072, mithramycin SK], for which the “intracellular levels of active caspase-3” value was “dose-dependent increase”.
